This passage reports IC50 results from patent US9382197B2, “Substituted hydroxamic acids and uses thereof” (Millennium Pharmaceuticals, Inc., priority 2010, dated 2016).

The IC50 is the concentration that gives 50% inhibition.

Molecules are shown by their SMILES. Bounds are passed on as bounds.

The first experiment concerns the target T1, purified human HDAC6 (Homo sapiens, UniProt Q9UBN7).
T1 construct: purchased BPS Bioscience 5006
T1 sequence (Q9UBN7 1-1215): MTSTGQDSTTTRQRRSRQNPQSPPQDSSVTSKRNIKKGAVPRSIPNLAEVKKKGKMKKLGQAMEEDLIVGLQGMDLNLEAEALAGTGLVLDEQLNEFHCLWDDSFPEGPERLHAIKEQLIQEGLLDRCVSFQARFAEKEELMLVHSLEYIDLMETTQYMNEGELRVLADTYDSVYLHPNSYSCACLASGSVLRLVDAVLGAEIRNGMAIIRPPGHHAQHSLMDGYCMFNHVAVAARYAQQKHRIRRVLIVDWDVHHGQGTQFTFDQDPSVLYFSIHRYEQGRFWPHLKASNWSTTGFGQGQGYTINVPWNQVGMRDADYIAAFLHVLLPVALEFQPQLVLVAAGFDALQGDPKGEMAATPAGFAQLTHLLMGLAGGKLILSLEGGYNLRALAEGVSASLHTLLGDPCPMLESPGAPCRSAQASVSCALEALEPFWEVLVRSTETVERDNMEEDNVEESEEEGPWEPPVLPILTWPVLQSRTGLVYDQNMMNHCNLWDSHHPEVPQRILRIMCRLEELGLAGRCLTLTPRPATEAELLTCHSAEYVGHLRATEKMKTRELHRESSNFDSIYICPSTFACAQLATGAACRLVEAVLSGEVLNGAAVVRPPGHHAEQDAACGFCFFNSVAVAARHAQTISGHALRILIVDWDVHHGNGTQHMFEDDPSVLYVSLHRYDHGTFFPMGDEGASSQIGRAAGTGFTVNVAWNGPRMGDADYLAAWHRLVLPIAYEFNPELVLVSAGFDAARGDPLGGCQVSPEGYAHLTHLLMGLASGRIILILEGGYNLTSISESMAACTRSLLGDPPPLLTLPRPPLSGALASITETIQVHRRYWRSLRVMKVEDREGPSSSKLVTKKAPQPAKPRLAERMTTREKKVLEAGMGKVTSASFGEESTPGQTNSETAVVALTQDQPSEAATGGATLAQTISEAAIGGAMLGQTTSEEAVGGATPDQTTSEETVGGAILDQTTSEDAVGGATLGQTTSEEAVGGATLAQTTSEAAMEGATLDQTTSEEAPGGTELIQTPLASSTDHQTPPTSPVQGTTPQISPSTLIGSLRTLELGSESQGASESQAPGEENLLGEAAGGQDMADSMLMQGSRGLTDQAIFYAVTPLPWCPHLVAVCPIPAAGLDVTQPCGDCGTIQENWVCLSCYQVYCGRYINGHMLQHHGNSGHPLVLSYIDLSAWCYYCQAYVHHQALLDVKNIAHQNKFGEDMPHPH
In words: HDAC6 Enzyme Assay. It counts as biochemical. The note with it: bin: greater than 500 nM and less than 1 μM (lower bound in nM, upper bound in μM). In a few lines:
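Deacetylated product quantified after trypsin digestion as released AMC (340/460 nm), following a 1 h, 30 °C reaction of human HDAC6 with Ac-RGK(Ac)-AMC peptide, quenched by trichostatin A. IC50 derived from DMSO-normalized curves.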
Compound `CC(NC(=O)c1cc(F)cc(F)c1)c1cccc(C(=O)NO)c1` (centres unmarked) [Compound I-137, 3,5-difluoro-N-(1-{3-[(hydroxyamino)carbonyl]phenyl}ethyl)benzamide] returned an IC50 of 500 to 1000 nM.

`CCC[C@H](NC(=O)C(C)(C)C)c1ccc(C(=O)NO)cc1` [Compound I-536, 4-{(1S)-1-[(2,2-dimethylpropanoyl)amino]butyl}-N-hydroxybenzamide]: the IC50 fell in the range of 500 to 1000 nM.

The same experiment, now with this note: bin: greater than 1 μM.
With `C[C@@H](NC(=O)NC(C)(C)C)c1cccc(C(=O)NO)c1` [Compound I-320, 3-((1R)-1-{[(tert-butylamino)carbonyl]amino}ethyl)-N-hydroxybenzamide], the IC50 is over 1000 nM.

Regarding `CC(C)C(NC(=O)c1ccc(-c2ccccc2)cc1)c1cccc(C(=O)NO)c1` (centres unmarked) [Compound I-323, N-(1-{3-[(hydroxyamino)carbonyl]phenyl}-2-methylpropyl)biphenyl-4-carboxamide], the IC50 was over 1000 nM.

Compound `CC(C)C(NC(=O)Cc1cc(C(F)(F)F)cc(C(F)(F)F)c1)c1ccc(C(=O)NO)cc1` (centres unmarked) [Compound I-250, 4-[1-({[3,5-bis(trifluoromethyl)phenyl]acetyl}amino)-2-methylpropyl]-N-hydroxybenzamide] came in with an IC50 of over 1000 nM.

The experiment is the same for the next values; noted with them: purified human HDAC6, substrate Ac-Arg-Gly-Lys(Ac)-AMC, 1 hour at 30° C.; reported as bins.
As to `Cc1ccccc1CNC(=O)NC(C)c1ccc(C(=O)NO)cc1` (centres unmarked) [Compound I-76, N-hydroxy-4-[1-({[(2-methylbenzyl)amino]carbonyl}amino)ethyl]benzamide], the IC50 was in the range of 100 to 500 nM.

For the compound `C[C@H](NC(=O)c1cc2ccccc2s1)c1cccc(C(=O)NO)c1` [Compound I-240, N-((1S)-1-{3-[(hydroxyamino)carbonyl]phenyl}ethyl)-1-benzothiophene-2-carboxamide], the IC50 lay within 100 to 500 nM.

With `CC(NC(=O)Nc1ccc(Oc2ccccc2)cc1)c1ccc(C(=O)NO)cc1` (centres unmarked) [Compound I-20, N-hydroxy-4-[1-({[(4-phenoxyphenyl)amino]carbonyl}amino)ethyl]benzamide], the IC50 fell in the range of 100 to 500 nM.

`O=C(NO)c1ccc([C@H](NC(=O)c2cc3ccccc3s2)C2CC2)cc1` [Compound I-229, N-((R)-cyclopropyl{4-[(hydroxyamino)carbonyl]phenyl}methyl)-1-benzothiophene-2-carboxamide]: the IC50 is under 100 nM.

Compound `CCC[C@@H](NC(=O)c1cc2ccccc2o1)c1ccc(C(=O)NO)cc1` [Compound I-79, N-((1R)-1-{4-[(hydroxyamino)carbonyl]phenyl}butyl)-1-benzofuran-2-carboxamide] returned an IC50 of under 100 nM.

As to `CC(NC(=O)c1ccc2ccccc2c1)c1ccc(C(=O)NO)cc1` (centres unmarked) [Compound I-327, N-(1-{4-[(hydroxyamino)carbonyl]phenyl}ethyl)-2-naphthamide], the concentration for half-maximal inhibition (IC50) was under 100 nM.

Consider `C[C@@H](NC(=O)c1cc2ccccc2o1)c1cccc(C(=O)NO)c1` [Compound I-201, N-((1R)-1-{3-[(hydroxyamino)carbonyl]phenyl}ethyl)-1-benzofuran-2-carboxamide], for which the IC50 was in the range of 100 to 500 nM.

Compound `Cc1nc2cc(C(=O)NC(C)c3ccc(C(=O)NO)cc3)ccc2s1` (centres unmarked) [Compound I-230, N-(1-{4-[(hydroxyamino)carbonyl]phenyl}ethyl)-2-methyl-1,3-benzothiazole-5-carboxamide] had an IC50 of under 100 nM.

As for `COc1cccc(C(=O)NC(C)c2ccc(C(=O)NO)cc2)c1` (centres unmarked) [Compound I-225, N-(1-{4-[(hydroxyamino)carbonyl]phenyl}ethyl)-3-methoxybenzamide], the IC50 was under 100 nM.

`CC(C)C(NC(=O)C1CCCCCC1)c1ccc(C(=O)NO)cc1` (centres unmarked) [Compound I-382, N-(1-{4-[(hydroxyamino)carbonyl]phenyl}-2-methylpropyl)cycloheptanecarboxamide] showed an IC50 of 100 to 500 nM.

Compound `CC(C)[C@@H](NC(=O)C(C)(C)C)c1ccc(C(=O)NO)cc1` [Compound I-287, 4-{(1R)-1-[(2,2-dimethylpropanoyl)amino]-2-methylpropyl}-N-hydroxybenzamide] yielded an IC50 of under 100 nM.

Regarding `CC(C)C(NC(=O)c1cc(C(C)(C)C)nn1Cc1ccccc1)c1ccc(C(=O)NO)cc1` (centres unmarked) [Compound I-77, 1-benzyl-3-tert-butyl-N-(1-{4-[(hydroxyamino)carbonyl]phenyl}-2-methylpropyl)-1H-pyrazole-5-carboxamide], the IC50 was 100 to 500 nM.

As to `C[C@@H](NC(=O)Nc1c(F)cccc1F)c1ccc(C(=O)NO)cc1` [Compound I-518, 4-[(1R)-1-({[(2,6-difluorophenyl)amino]carbonyl}amino)ethyl]-N-hydroxybenzamide], the 50% inhibitory concentration (IC50) was under 100 nM.

`CC(NC(=O)Nc1cc(C(F)(F)F)ccc1F)c1ccc(C(=O)NO)cc1` (centres unmarked) [Compound I-334, 4-{1-[({[2-fluoro-5-(trifluoromethyl)phenyl]amino}carbonyl)amino]ethyl}-N-hydroxybenzamide]: the IC50 is under 100 nM.

The compound `Cc1cc(C)n2nc(C(=O)NC(C)c3ccc(C(=O)NO)cc3)cc2n1` (centres unmarked) [Compound I-160, N-(1-{4-[(hydroxyamino)carbonyl]phenyl}ethyl)-5,7-dimethylpyrazolo[1,5-a]pyrimidine-2-carboxamide] displayed an IC50 of under 100 nM.

With `CC(C)[C@@H](NC(=O)Nc1c(F)cccc1F)c1ccc(C(=O)NO)cc1` [Compound I-521, 4-[(1R)-1-({[(2,6-difluorophenyl)amino]carbonyl}amino)-2-methylpropyl]-N-hydroxybenzamide], the IC50 was under 100 nM.

`C[C@@H](NC(=O)Nc1ccccc1-c1ccccc1)c1ccc(C(=O)NO)cc1` [Compound I-523, 4-((1R)-1-{[(biphenyl-2-ylamino)carbonyl]amino}ethyl)-N-hydroxybenzamide]: the 50% inhibitory concentration (IC50) was under 100 nM.

Take `Cc1ccc(S(=O)(=O)NC(C)c2ccc(C(=O)NO)cc2)c(C)c1` (centres unmarked) [Compound I-78, 4-(1-{[(2,4-dimethylphenyl)sulfonyl]amino}ethyl)-N-hydroxybenzamide]: the IC50 was in the range of 100 to 500 nM.

For the compound `Cc1cc(C(=O)NC(c2ccc(C(=O)NO)cc2)C(C)(C)C)nn1C` (centres unmarked) [Compound I-260, N-(1-{4-[(hydroxyamino)carbonyl]phenyl}-2,2-dimethylpropyl)-1,5-dimethyl-1H-pyrazole-3-carboxamide], the IC50 fell in the range of 100 to 500 nM.

Turning to `CC(C)[C@H](NC(=O)c1cc2ccccc2s1)c1ccc(C(=O)NO)cc1` [Compound I-67, N-((1S)-1-{4-[(hydroxyamino)carbonyl]phenyl}-2-methylpropyl)-1-benzothiophene-2-carboxamide], the IC50 was 100 to 500 nM.

Consider `CCc1ccc(NC(=O)NC(C)c2ccc(C(=O)NO)cc2)cc1` (centres unmarked) [Compound I-381, 4-[1-({[(4-ethylphenyl)amino]carbonyl}amino)ethyl]-N-hydroxybenzamide], for which the IC50 is under 100 nM.

Consider `Cn1nc(C(C)(C)C)cc1C(=O)NC(c1ccc(C(=O)NO)cc1)C(C)(C)C` (centres unmarked) [Compound I-291, 3-tert-butyl-N-(1-{4-[(hydroxyamino)carbonyl]phenyl}-2,2-dimethylpropyl)-1-methyl-1H-pyrazole-5-carboxamide], for which the IC50 is 100 to 500 nM.

Regarding `CC(C)[C@@H](NC(=O)Nc1ccc(C#N)cc1)c1ccc(C(=O)NO)cc1` [Compound I-525, 4-[(1R)-1-({[(4-cyanophenyl)amino]carbonyl}amino)-2-methylpropyl]-N-hydroxybenzamide], the IC50 is under 100 nM.

In turn, `CC(NS(=O)(=O)c1cccc2cccnc12)c1ccc(C(=O)NO)cc1` (centres unmarked) [Compound I-363, N-hydroxy-4-{1-[(quinolin-8-ylsulfonyl)amino]ethyl}benzamide] registered an IC50 of 100 to 500 nM.
